Assay results from article PMC9927415, “Tyrosine Kinase Inhibitors Display Potent Activity against Cryptosporidium parvum” (Microbiology Spectrum, 2022).

Legend:
Assay in all cases: KINOMEscan competitive binding, whole panel
panel of 203 kinases [1] = biological target: T1, panel of 203 kinases (Homo sapiens, UniProt P42685); details: 10 µM, n=1; kinase FRK; read-out: Percent inhibition FRK
T1 construct: purchased DiscoverX (KINOMEscan)
Procedure, shortened: (§1)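 Percentage inhibition reflects loss of kinase binding to solid-phase ATP-site probe ligands in the presence of compound. Kinases carry a T7 bacteriophage fusion.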

panel of 203 kinases [2] = biological target: T2, panel of 203 kinases (Homo sapiens, UniProt P19784); details: 10 µM, n=1; kinase CSNK2A2; read-out: Percent inhibition CSNK2A2
T2 construct: purchased DiscoverX (KINOMEscan)
Procedure, shortened: as §1

panel of 203 kinases [3] = biological target: T3, panel of 203 kinases (Homo sapiens, UniProt P51955); details: 10 µM, n=1; kinase NEK2; read-out: Percent inhibition NEK2
T3 construct: purchased DiscoverX (KINOMEscan)
T3 sequence (P51955 1-445): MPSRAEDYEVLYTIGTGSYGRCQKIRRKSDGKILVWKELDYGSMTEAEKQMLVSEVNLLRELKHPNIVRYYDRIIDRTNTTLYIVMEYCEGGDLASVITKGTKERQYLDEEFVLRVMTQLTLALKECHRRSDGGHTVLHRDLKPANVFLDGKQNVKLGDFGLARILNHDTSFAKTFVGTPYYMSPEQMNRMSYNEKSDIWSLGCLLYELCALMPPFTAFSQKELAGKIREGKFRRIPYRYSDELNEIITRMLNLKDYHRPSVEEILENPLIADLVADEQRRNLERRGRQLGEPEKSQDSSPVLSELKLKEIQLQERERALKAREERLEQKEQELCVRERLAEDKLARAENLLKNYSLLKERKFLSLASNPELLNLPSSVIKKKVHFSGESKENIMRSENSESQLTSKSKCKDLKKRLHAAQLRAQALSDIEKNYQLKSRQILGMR
Procedure, shortened: as §1

panel of 203 kinases [4] = biological target: T4, panel of 203 kinases (Homo sapiens, UniProt O14976); details: 10 µM, n=1; kinase GAK; read-out: Percent inhibition GAK
T4 construct: purchased DiscoverX (KINOMEscan)
T4 sequence (O14976 1-1311): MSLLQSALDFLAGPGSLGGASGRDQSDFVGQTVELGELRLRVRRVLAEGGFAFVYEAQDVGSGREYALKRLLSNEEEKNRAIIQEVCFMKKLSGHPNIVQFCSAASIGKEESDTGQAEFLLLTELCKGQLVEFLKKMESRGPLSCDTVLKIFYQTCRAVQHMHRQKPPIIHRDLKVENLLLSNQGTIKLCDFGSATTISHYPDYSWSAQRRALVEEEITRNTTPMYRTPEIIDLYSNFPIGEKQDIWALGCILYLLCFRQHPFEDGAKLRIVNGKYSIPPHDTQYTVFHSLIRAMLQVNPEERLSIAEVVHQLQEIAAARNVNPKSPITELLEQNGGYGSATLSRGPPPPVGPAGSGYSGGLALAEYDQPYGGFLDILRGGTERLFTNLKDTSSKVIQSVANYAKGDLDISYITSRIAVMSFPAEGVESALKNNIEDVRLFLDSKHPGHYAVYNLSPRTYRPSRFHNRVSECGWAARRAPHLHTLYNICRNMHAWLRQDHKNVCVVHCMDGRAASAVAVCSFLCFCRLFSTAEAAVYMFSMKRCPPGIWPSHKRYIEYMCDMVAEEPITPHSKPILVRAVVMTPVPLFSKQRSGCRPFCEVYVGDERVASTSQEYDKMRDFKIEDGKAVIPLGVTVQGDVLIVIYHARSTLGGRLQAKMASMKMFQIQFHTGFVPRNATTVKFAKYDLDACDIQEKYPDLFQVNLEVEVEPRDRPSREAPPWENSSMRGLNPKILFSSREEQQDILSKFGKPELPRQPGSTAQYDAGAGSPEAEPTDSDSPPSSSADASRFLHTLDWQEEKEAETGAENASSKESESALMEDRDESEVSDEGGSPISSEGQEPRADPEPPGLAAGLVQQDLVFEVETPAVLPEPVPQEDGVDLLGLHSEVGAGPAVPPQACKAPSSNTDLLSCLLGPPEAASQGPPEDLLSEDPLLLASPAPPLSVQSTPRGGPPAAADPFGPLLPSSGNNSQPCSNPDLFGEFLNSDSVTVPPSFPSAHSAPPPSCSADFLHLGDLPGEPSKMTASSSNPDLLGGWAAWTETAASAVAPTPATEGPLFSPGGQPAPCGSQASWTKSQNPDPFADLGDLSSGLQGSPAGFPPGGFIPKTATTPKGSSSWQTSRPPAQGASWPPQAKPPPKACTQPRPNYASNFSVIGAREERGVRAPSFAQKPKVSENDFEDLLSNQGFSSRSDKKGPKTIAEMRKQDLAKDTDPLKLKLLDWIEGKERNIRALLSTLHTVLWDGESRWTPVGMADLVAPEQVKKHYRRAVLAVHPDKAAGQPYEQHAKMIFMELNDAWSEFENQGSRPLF
Procedure, shortened: as §1

panel of 203 kinases [5] = biological target: T5, panel of 203 kinases (Homo sapiens, UniProt Q15375); details: 10 µM, n=1; kinase EPHA7; read-out: Percent inhibition EPHA7
T5 construct: purchased DiscoverX (KINOMEscan)
Procedure, shortened: as §1

Row | SMILES | inhibition at 10 µM (panel of 203 kinases [1]) | inhibition at 10 µM (panel of 203 kinases [2]) | inhibition at 10 µM (panel of 203 kinases [3]) | inhibition at 10 µM (panel of 203 kinases [4]) | inhibition at 10 µM (panel of 203 kinases [5])
1 | CN1CCN(c2ccc(Nc3nccc(-c4cnn5ncccc45)n3)cc2C#N)CC1 [Compound 1] | 91.8% | 96.3% | 98.5% | 97.9% | 67.3%
2 | COc1ccc(Nc2nccc(-c3cnn4ncccc34)n2)cc1 [Compound 2] | 0% | 74.2% | 99.9% | 99.9% | 74.6%
3 | Cc1ccc(O)cc1Nc1ccnc(Nc2cccc(C(N)=O)c2)n1 [Compound 3] | 99.6% | 0% | 0% | 99.8% | 84%
4 | Cc1ccc(O)cc1N(C)c1ccnc(Nc2cccc(S(N)(=O)=O)c2)n1 [Compound 4] | 99.5% | 0% | 0% | 99.6% | 100%
5 | Fc1cccc(COc2ccc(Nc3ncnc4c3CN(CCN3CCOCC3)CC4)cc2Cl)c1 [Compound 6] | 0% | 0% | 0% | 0% | 0%
6 | COc1cc(Nc2nccc(-c3sc(N)nc3-c3cccc(NC(=O)c4c(F)cccc4F)c3)n2)cc(OC)c1OC [Compound 7] | 100% | 0% | 100% | 100% | 0%
7 | C[C@@H](Oc1cc(-c2cnc3ccccn23)sc1C(N)=O)c1ccccc1Cl [Compound 8] | 0% | 95.2% | 99.4% | 97.2% | 0%
8 | c1ccc(COc2cccc(-c3ccnc4[nH]ccc34)c2)cc1 [Compound 9] | 0% | 0% | 0% | 0% | 0%
9 | Clc1ccc(Nc2ncc(-c3ccccc3)s2)cc1 [Compound 10] | 0% | 0% | 0% | 0% | 0%
10 | Nc1ncc2c(-c3ccncc3)c[nH]c2n1 [Compound 11] | 0% | 0% | 0% | 97.2% | 0%
